For 17 molecules, IC50 and EC50 results are on record in patent publication US11053250B2, “Pyrrolo[1,2-b]pyridazine derivatives” (Gilead Sciences, Inc., priority 2018, dated 2021).

One test deals with IRAK4 enzyme (Homo sapiens (Human), UniProt Q9NWZ3). The test is described as follows: IRAK4 Biochemical Assay (TR-FRET/HTRF). Particulars: 0.75 nM IRAK4, 500 μM ATP, STK1 peptide. Here is the method: IRAK4 enzyme (Carna Biosciences, Chuo-ku, Kobe, Japan) activity was measured by detecting phosphorylated peptide substrate formation using an antibody against the phosphorylated peptide substrate. This is a time-resolved fluorescence resonance energy transfer (TR-FRET) immunoassay, based on the STK1 KinEASE Assay (Cisbio, Bedford, Mass.). The assay was designed as a simple two-step, endpoint assay (a 5 μl enzyme reaction followed by 5 μl stop and detect Solution) performed in ProxiPlate-384 Plus plates (Perkin Elmer, Waltham, Mass.). Staurosporine, a non-selective kinase inhibitor was used as a positive control. Compounds diluted in DMSO were spotted into 384 well plates using a Labcyte® Echo 550 Liquid Handling System prior to addition of IRAK4 enzyme and peptide substrate. Reaction solutions were delivered using a Multi-Flo (Bio-Tek Instruments). The enzyme and peptide solution was incubated with compound for 15 minutes at room temp before the reaction was initiated by the addition of ATP. The standard 5 μl reaction mixture contained 500 μM ATP, 2 μM peptide (STK1 Peptide), 0.75 nM of IRAK4 in reaction buffer (50 mM HEPES, pH 7.0, 0.02% NaN3, 0.01% BSA, 0.1 mM Orthovanadate, 5 mM MgCl2, 0.025% NP-40, 1 mM DTT). After 120 min of incubation at room temperature, 5 μl of Stop and Detect Solution (1:100 Cryptate labeled anti-phosphorylated peptide antibody solution and 125 nM Tracer in a 50 mM HEPES pH 7.0 detection buffer containing sufficient EDTA) was added. The plate was then further incubated for 60 minutes at room temperature and read on Envision 2103 Multilabeled reader (PerkinElmer) with excitation/emission/FRET emission at 340 nm/615 nm/665 nm, respectively. Fluorescence intensities at 615 nm and 665 nm emission wavelengths were expressed as a ratio (665 nm/615 nm). Percentage of inhibition was calculated as below: % Inhibition=100×(RatioSample−Ratio0% Inhibition)/(Ratio100% Inhibition−Ratio0% Inhibition)
Chain of IRAK4 enzyme (Q9NWZ3 whole entry): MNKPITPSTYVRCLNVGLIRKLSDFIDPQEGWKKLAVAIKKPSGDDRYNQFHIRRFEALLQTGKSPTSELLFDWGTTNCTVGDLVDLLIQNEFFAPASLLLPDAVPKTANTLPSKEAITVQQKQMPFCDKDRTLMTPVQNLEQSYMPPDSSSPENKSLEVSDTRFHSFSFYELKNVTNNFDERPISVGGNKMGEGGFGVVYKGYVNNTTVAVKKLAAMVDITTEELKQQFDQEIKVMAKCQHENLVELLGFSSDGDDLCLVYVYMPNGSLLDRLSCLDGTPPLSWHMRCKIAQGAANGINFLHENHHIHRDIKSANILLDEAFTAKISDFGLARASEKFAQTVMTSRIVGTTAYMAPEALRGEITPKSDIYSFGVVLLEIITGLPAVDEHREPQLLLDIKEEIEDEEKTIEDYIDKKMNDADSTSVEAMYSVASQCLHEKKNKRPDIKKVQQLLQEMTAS
The 0% inhibition value comes from control wells lacking inhibitor. The 100% inhibition value comes from control wells containing a saturating amount of known inhibitor staurosporine.
A general note: In TR-FRET formats the signal depends on donor and acceptor labels being close together.

The next test deals with TNFα. The test can be described thus: IRAK4 Monocyte TNFα Cell Based Assay. The following applies: cryopreserved human monocytes, LPS 50 pg/ml stimulation, TNFα by TR-FRET. Here is the method: The cell suspension was then plated at a density of 5,000 cells/well onto black 384 well Greiner clear bottom plates. Plates were pre-spotted with test compounds and serially diluted in DMSO where 40 nL/well were delivered using the Echo 550 acoustic liquid dispenser (Labcyte®) for a final DMSO concentration of 0.1%. Plated cells were treated with compound for 1 hour at 37° C. Cells were then stimulated with 50 pg/ml of LPS (Sigma) excluding outside columns of plate used for unstimulated cell control wells. Cells were incubated for an additional 4 hours at 37° C. Cells were then spun out of the media and 5 μl of sample were taken and analyzed for total TNFα content using the TR-FRET Human TNFα detection system (CisBio). This system utilizes two labeled antibodies (cryptate and XL665) that bind to two different epitopes of the TNFα molecule and produce FRET signal proportional to the concentration of TNFα in the sample. Detection antibodies are mixed 50:50 and 5 μL were dispensed into each well. Plates were covered with clear seals and incubated at room temp overnight. The following morning plates were read using an Envision 2103 Multilabeled reader (PerkinElmer) with excitation/emission/FRET emission at 340 nm/615 nm/665 nm, respectively. Fluorescence intensities at 615 nm and 665 nm emission wavelengths were expressed as a ratio (665 nm/615 nm). Percent of control was calculated as follows: % Control=100×(RatioSample−Ratio0% stimulation)/(Ratio100% Stimulation−Ratio0% stimulation) where unstimulated cells (0% stimulation) were the negative control and stimulated cells (100% stimulation) were used as the positive control.

What is called IC50 is the concentration that inhibits the measured activity by half. The low end stands for greater potency in that assay, the high end for weaker potency in that assay. For orientation: EC50 means the midpoint of the concentration-response curve. A low value points to higher potency in that assay. As to `COC(=O)NC[C@H]1C[C@H](Nc2cc(-c3ccc4cc(C#N)cnn34)ncc2-c2cn(CC(=O)N3CC(F)(F)C3)nn2)C1` [Compound 14, methyl (((1r,3r)-3-((2-(3-cyanopyrrolo[1,2-b]pyridazin-7-yl)-5-(1-(2-(3,3-difluoroazetidin-1-yl)-2-oxoethyl)-1H-1,2,3-triazol-4-yl)pyridin-4-yl)amino)cyclobutyl)methyl)carbamate], at IRAK4 enzyme, the IC50 was under 1 nM. The EC50 in the test on TNFα turned out to be 18 nM.

Molecule `CC(C)(O)[C@H](F)Cn1cc(-c2cnc(-c3ccc4cc(C#N)cnn34)cc2N[C@H]2CC[C@H](c3cnn(C(F)F)c3)CC2)nn1` [Compound 15, 7-(4-(((1r,4R)-4-(1-(difluoromethyl)-1H-pyrazol-4-yl)cyclohexyl)amino)-5-(1-((R)-2-fluoro-3-hydroxy-3-methylbutyl)-1H-1,2,3-triazol-4-yl)pyridin-2-yl)pyrrolo[1,2-b]pyridazine-3-carbonitrile] displayed a 50% inhibitory concentration (IC50) against IRAK4 enzyme of 3 nM. The half-maximal effective concentration (EC50) in the test with TNFα was 18 nM.

As to `COC(=O)NC[C@H]1C[C@H](Nc2cc(-c3ccc4cc(C#N)cnn34)ncc2-c2cn(CC#N)nn2)C1` [Compound 16, methyl (((1r,3r)-3-((5-(1-(cyanomethyl)-1H-1,2,3-triazol-4-yl)-2-(3-cyanopyrrolo[1,2-b]pyridazin-7-yl)pyridin-4-yl)amino)cyclobutyl)methyl)carbamate], on IRAK4 enzyme, half-maximal inhibition (IC50) was put at 1 nM. In the test with TNFα, this molecule registered an EC50 of 33 nM.

`CNc1cc(-c2ccc3cc(C#N)cnn23)ncc1-c1cn([C@H]2CC[C@H](NC(=O)N3CCOCC3)CC2)nn1` [Compound 18, N-((1r,4r)-4-(4-(6-(3-cyanopyrrolo[1,2-b]pyridazin-7-yl)-4-(methylamino)pyridin-3-yl)-1H-1,2,3-triazol-1-yl)cyclohexyl)morpholine-4-carboxamide] had an IC50 against IRAK4 enzyme of 2 nM. Moreover, the EC50 in the test on TNFα was determined as 49 nM.

`COC(=O)NC[C@H]1C[C@H](Nc2cc(-c3ccc4cc(C#N)cnn34)ncc2-c2cn([C@H]3CC[C@H](NC(=O)C4CC4)CC3)nn2)C1` [Compound 19, methyl (((1R,3r)-3-((2-(3-cyanopyrrolo[1,2-b]pyridazin-7-yl)-5-(1-((1r,4R)-4-(cyclopropanecarboxamido)cyclohexyl)-1H-1,2,3-triazol-4-yl)pyridin-4-yl)amino)cyclobutyl)methyl)carbamate] gave an IC50 against IRAK4 enzyme of under 1 nM. Also, the EC50 in the test on TNFα amounted to 9 nM.

Molecule `CNc1cc(-c2ccc3cc(C#N)cnn23)ncc1-c1cn([C@H]2CC[C@H](NC(=O)C3CC3)CC2)nn1` [Compound 20, N-((1r,4r)-4-(4-(6-(3-cyanopyrrolo[1,2-b]pyridazin-7-yl)-4-(methylamino)pyridin-3-yl)-1H-1,2,3-triazol-1-yl)cyclohexyl)cyclopropanecarboxamide] came in with a concentration for half-maximal inhibition (IC50) on IRAK4 enzyme of 1 nM. In the test with TNFα, this molecule had an EC50 of 62 nM.

Turning to `Cn1cc(-c2cnc(-c3ccc4cc(C#N)cnn34)cc2NC23CCC(O)(CC2)CC3)nn1` [Compound 21, 7-(4-((4-hydroxybicyclo[2.2.2]octan-1-yl)amino)-5-(1-methyl-1H-1,2,3-triazol-4-yl)pyridin-2-yl)pyrrolo[1,2-b]pyridazine-3-carbonitrile], the 50% inhibitory concentration (IC50) against IRAK4 enzyme is under 1 nM. For the same molecule, the EC50 in the test with TNFα (Monocyte) is 9 nM.

On to `COC(=O)NCC1CC(Nc2cc(-c3ccc4cc(C#N)cnn34)ncc2-c2cn(C3CCC(NC(=O)OC(C)(C)C)CC3)nn2)C1` [Compound 22, methyl (((1R,3r)-3-((5-(1-((1r,4R)-4-((tert-butoxycarbonyl)amino)cyclohexyl)-1H-1,2,3-triazol-4-yl)-2-(3-cyanopyrrolo[1,2-b]pyridazin-7-yl)pyridin-4-yl)amino)cyclobutyl)methyl)carbamate], for which 1 nM corresponded to half-maximal inhibition on IRAK4 enzyme (IC50). Further, the EC50 in the test on TNFα stood at 187 nM.

Molecule `CNc1cc(-c2ccc3cc(C#N)cnn23)ncc1-c1cn(CC(F)(F)F)nn1` [Compound 24, 7-(4-(methylamino)-5-(1-(2,2,2-trifluoroethyl)-1H-1,2,3-triazol-4-yl)pyridin-2-yl)pyrrolo[1,2-b]pyridazine-3-carbonitrile] registered a half-maximal inhibitory concentration (IC50) against IRAK4 enzyme of 11 nM. Further, the midpoint of the response in the test on TNFα (Monocyte), the EC50, lay at 302 nM.

In the case of `CC(C)(O)[C@H](F)Cn1cc(-c2cnc(-c3ccc4cc(C#N)cnn34)cc2NC23CCC(O)(CC2)CC3)nn1` [Compound 25, (R)-7-(5-(1-(2-fluoro-3-hydroxy-3-methylbutyl)-1H-1,2,3-triazol-4-yl)-4-((4-hydroxybicyclo[2.2.2]octan-1-yl)amino)pyridin-2-yl)pyrrolo[1,2-b]pyridazine-3-carbonitrile], the IC50 against IRAK4 enzyme was under 1 nM. The same molecule registered an EC50 in the test with TNFα (Monocyte) of 3 nM.

On IRAK4 enzyme, `CNc1cc(-c2ccc3cc(C#N)cnn23)ncc1-c1cn(CCC(C)(C)O)nn1` [Compound 26, 7-(5-(1-(3-hydroxy-3-methylbutyl)-1H-1,2,3-triazol-4-yl)-4-(methylamino)pyridin-2-yl)pyrrolo[1,2-b]pyridazine-3-carbonitrile] registered an IC50 of 2 nM. For the same molecule, the half-maximal effective concentration (EC50) in the test with TNFα (Monocyte) came to 79 nM.

`CNc1cc(-c2ccc3cc(C#N)cnn23)ncc1-c1cn(CC(F)F)nn1` [Compound 27, 7-(5-(1-(2,2-difluoroethyl)-1H-1,2,3-triazol-4-yl)-4-(methylamino)pyridin-2-yl)pyrrolo[1,2-b]pyridazine-3-carbonitrile] returned a concentration for half-maximal inhibition (IC50) against IRAK4 enzyme of 9 nM. In the test with TNFα (Monocyte), this molecule gave an EC50 of 338 nM.

The molecule `CNc1cc(-c2ccc3cc(C#N)cnn23)ncc1-c1cn(CC(F)(F)C(C)(C)O)nn1` [Compound 28, 7-(5-(1-(2,2-difluoro-3-hydroxy-3-methylbutyl)-1H-1,2,3-triazol-4-yl)-4-(methylamino)pyridin-2-yl)pyrrolo[1,2-b]pyridazine-3-carbonitrile] had an IC50 at IRAK4 enzyme of 3 nM. In the test on TNFα (Monocyte), this molecule returned an EC50 of 94 nM.

Turning to `COC(=O)NC[C@H]1C[C@H](Nc2cc(-c3ccc4cc(C#N)cnn34)ncc2-c2cn(CC(F)(F)F)nn2)C1` [Compound 29, methyl (((1r,3r)-3-((2-(3-cyanopyrrolo[1,2-b]pyridazin-7-yl)-5-(1-(2,2,2-trifluoroethyl)-1H-1,2,3-triazol-4-yl)pyridin-4-yl)amino)cyclobutyl)methyl)carbamate], at IRAK4 enzyme, the IC50 is under 1 nM. For the same molecule, in the test with TNFα, the response was half-maximal at 77 nM (EC50).

As to `COC(=O)NC[C@H]1C[C@H](Nc2cc(-c3ccc4cc(C#N)cnn34)ncc2-c2cn(CCC(C)(C)O)nn2)C1` [Compound 30, methyl (((1r,3r)-3-((2-(3-cyanopyrrolo[1,2-b]pyridazin-7-yl)-5-(1-(3-hydroxy-3-methylbutyl)-1H-1,2,3-triazol-4-yl)pyridin-4-yl)amino)cyclobutyl)methyl)carbamate], the IC50 against IRAK4 enzyme was under 1 nM. The same molecule yielded an EC50 in the test with TNFα of 4 nM.

The molecule `CC(C)(O)[C@H](F)Cn1cc(-c2cnc(-c3ccc4cc(C#N)cnn34)cc2NC2COC2)nn1` [Compound 31, (R)-7-(5-(1-(2-fluoro-3-hydroxy-3-methylbutyl)-1H-1,2,3-triazol-4-yl)-4-(oxetan-3-ylamino)pyridin-2-yl)pyrrolo[1,2-b]pyridazine-3-carbonitrile] showed an IC50 at IRAK4 enzyme of under 1 nM. Further, the EC50 in the test on TNFα (Monocyte) turned out to be 23 nM.

With `COC(=O)NC[C@H]1C[C@H](Nc2cc(-c3ccc4cc(C#N)cnn34)ncc2-c2cn(CC(F)F)nn2)C1` [Compound 32, methyl (((1r,3r)-3-((2-(3-cyanopyrrolo[1,2-b]pyridazin-7-yl)-5-(1-(2,2-difluoroethyl)-1H-1,2,3-triazol-4-yl)pyridin-4-yl)amino)cyclobutyl)methyl)carbamate], the IC50 on IRAK4 enzyme is under 1 nM. Moreover, the EC50 in the test with TNFα worked out at 38 nM.
